Measured values from patent US12435083B2, “Cyclopropyl-(hetero)aryl-substituted ethylsulphonyl-pyridine derivatives” (BOEHRINGER INGELHEIM VETMEDICA GMBH, priority 2021, dated 2025).
Like-named read-outs stand apart in the source and are kept apart here.

How the values were obtained:
[1] = system: Aedes aegypti L1 larvae; assay: Activity against larvae of Aedes aegypti (L1 larvae, 384-well, image-based mortality); conditions: read-out: EC50 (percentage of mortality, A. aegypti L1 larvae)
Experimental: Example 3: Screening Method to Test Activity of Compounds of Formula (I) Against Larvae of Aedes aegypti
Eight A. aegypti L1 larvae in a total volume of 64 μL water were added to 384-well microplates containing compounds formulated in 100% DMSO. The plates were incubated for 48 h at 27° C. Individual well images were acquired and analyzed using a pipeline to quantitatively assess the amount of larvae biomass accumulating at the bottom of the well. The efficacy of a compound at a given dose is expressed as “percentage of mortality” and determined by comparison to average biomass descriptors of positive and negative control wells containing 1.0 μM Fipronil or DMSO only, respectively. Dose response assay were conducted to determine an EC50 value.

[2] = system: Spodoptera litura 2nd-instar larvae; assay: Insecticidal test on Spodoptera litura (cabbage leaf dip); conditions: foliar, 192 h, 8 days after inoculation, read-out: activity level (corrected mortality rate), Spodoptera litura
Experimental: Example 11: Insecticidal Test on Spodoptera litura
The compounds of formula (I) of the present invention or salts thereof were separately dispersed in water and diluted to 500 ppm. Cabbage leaves were dipped in the dispersion for about 30 seconds. After air dried, the leaves were placed in a plastic Petri dish with a diameter of 9 cm and inoculated with ten 2nd-instar larvae of Spodoptera litura, after which the dish was closed and then allowed to stand in a room at 25° C. 8 days after the inoculation, the numbers of the dead and alive insects were counted. The corrected mortality rate was calculated according to the following formula and the insecticidal activity was evaluated according to the following criteria. Corrected mortality rate (%)=100×(Survival rate in an untreated plot−Survival rate in a treated plot)/Survival rate in an untreated plot • A: the corrected mortality rate is 100% • B: the corrected mortality rate is 90 to 99% • C: the corrected mortality rate is 80 to 89% • D: the corrected mortality rate is 50 to 79%

[3] = system: Plutella xylostella; assay: Insecticidal test on Plutella xylostella (Chinese cabbage seedling dip); conditions: 144 h, 500 ppm, seedling dip, 6 days after dip treatment, read-out: activity level (corrected mortality rate), Plutella xylostella
Method in brief: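 Compounds dispersed in water at 500 ppm; Chinese cabbage seedlings bearing eggs laid by released adults over 2 days were dipped ~30 s, air-dried and kept at 25° C. Dead and live insects counted 6 days later; corrected mortality versus untreated plot scored A (100%), B (90–99%), C (80–89%), D (50–79%).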

[4] = system: Laodelphax striatellus 3rd-instar nymphs; assay: Insecticidal test on Laodelphax striatellus (rice seedling dip); conditions: 192 h, 500 ppm, seedling dip, 8 days after inoculation, read-out: activity level (corrected mortality rate), Laodelphax striatellus
Experimental: Example 13: Insecticidal Test on Laodelphax striatellus
The compounds of formula (I) of the present invention or salts thereof were separately dispersed in water and diluted to 500 ppm. Rice plant seedlings were dipped in the dispersion for about 30 seconds. After air dried, the seedlings were put into a separate glass test tube and inoculated with ten 3rd-instar nymphs of Laodelphax striatellus and then the glass test tube was kept in a room at 25° C. 8 days after the inoculation, the numbers of the dead and alive insects were counted. The corrected mortality rate was calculated according to the following formula and the insecticidal activity was evaluated according to the following criteria. Corrected mortality rate (%)=100×(Survival rate in an untreated plot−Survival rate in a treated plot)/Survival rate in an untreated plot • A: the corrected mortality rate is 100% • B: the corrected mortality rate is 90 to 99% • C: the corrected mortality rate is 80 to 89% • D: the corrected mortality rate is 50 to 79%

[5] = system: Myzus persicae; assay: Insecticidal test on Myzus persicae (foliar application on potted Chinese cabbage); conditions: 144 h, read-out: control efficacy level (control rate), Myzus persicae
Source text: Example 14: Insecticidal Test on Myzus persicae
The compounds of formula (I) of the present invention or salts thereof were separately dispersed in water and diluted to 500 ppm. Chinese cabbage plants were planted in plastic pots (diameter: 8 cm, height: 8 cm). Aphids (Myzus persicae) were propagated on the plants and then the number of surviving aphids was counted. The dispersion was applied to the foliage of the potted plants. After the plants were air dried, these were kept in a greenhouse. 6 days after the application, the number of the alive insects was counted on the plants. The control rate was calculated according to the following formula and the control efficacy was evaluated according to the following criteria. Control rate (%)=100−{(T×Ca)/(Ta×C)}×100 • Ta: the number of alive insects before the foliar application in a treated plot • T: the number of alive insects after the foliar application in a treated plot • Ca: the number of alive insects before the foliar application in an untreated plot • C: the number of alive insects after the foliar application in an untreated plot • A: the control rate is 100% • B: the control rate is 90 to 99% • C: the control rate is 80 to 89% • D: the control rate is 50 to 79%

[6] = system: adult Ctenocephalides felis fleas; assay: Contact activity against adult Ctenocephalides felis (treated surface, motility by machine vision, 24 h); conditions: treated surface, 24h, read-out: EC80 (% motility reduction, adult C. felis, contact)
Source text: Example 7: Screening Method to Test Contact Activity of Compounds of Formula (I) Against Adult Ctenocephalides felis

[7] = system: adult Ctenocephalides felis fleas; assay: Ingestion activity (flea membrane feeding, blood feeding) against adult Ctenocephalides felis; conditions: Ctenocephalides felis
[8] = system: adult Rhipicephalus sanguineus ticks; assay: Contact activity against adult Rhipicephalus sanguineus (coated vial, mortality at 48 h); conditions: Rhipicephalus sanguineus
Method in brief: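 Compound in acetone/0.02% Triton X-100 coated onto glass vial walls and cap filter paper; after drying, ten adult ticks added per vial. Held at 24° C, 95% relative humidity, 12 h light/dark cycle. Mortality scored visually at 48 hours; EC50 derived from a dose-response series.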

[9] = system: nymphs of Dermacentor variabilis ticks; assay: Oral rat-tick efficacy against nymphs of Dermacentor variabilis ticks; assay type: in vivo; conditions: rats, oral gavage 10 mg/kg on Day 0, tick count on Day 3
Experimental: Example 10: Comparison of Oral Rat-Tick Efficacy Data for Selected Specific Compounds of Formula (I) Against Nymphs of Dermacentor variabilis Ticks
On Day −1, rats were sedated, fitted with an Elizabethan collar, and infested with approximately 35 nymphal stage D. variabilis ticks. On Day 0, each rat was treated via oral gavage with the appropriate formulation of placebo, positive control, or test compound at the appropriate dose. On Day 3, all rats were euthanized, and ticks were removed, counted, and disposed of. In Table 2 efficacy is expressed in % mortality compared to negative controls containing compound vehicle only.

[10] = 500 ppm, foliar application, 6 days after application
[11] = bovine blood, 24h post treatment, read-out: EC80 (% motility reduction, adult C. felis, ingestion via membrane feeding)
[12] = 48 hours post-treatment, coated vial, read-out: EC50 (percentage mortality, adult R. sanguineus, contact)
[13] = contact assay, >100 μM = not active at the top concentration, read-out: R. sanguineus contact activity EC50
[14] = 24 h, flea membrane feeding (ingestion, blood feeding) assay, EC80, read-out: C. felis membrane feeding (ingestion/blood feeding) activity EC80

| SMILES | EC50 ([1]; 48 h) [µM] | mortality at 500 ppm [2] [%] | mortality at 500 ppm [3] [%] | mortality at 500 ppm [4] [%] | pest or weed control at 500 ppm ([5]; foliar) [%] | EC50 ([1]; 48 h at 27° C., 384-well) [µM] | EC80 [6] [µM] | pest or weed control at 500 ppm [5, 10] [%] | EC80 [7, 11] [µM] | EC50 [8, 12] [µM] | EC50 [8, 13] [µM] | EC80 [7, 14] [µM] | EC50 ([8]; 48 h, read-out: EC50 (percentage mortality, adult R. sanguineus, contact)) [µM] | EC80 ([7]; 24 h, read-out: EC80 (% motility reduction, adult C. felis, ingestion via membrane feeding)) [µM] | Observed efficacy (% mortality compared to negative controls) [9] [%] |
| --- | --- | --- | --- | --- | --- | --- | --- | --- | --- | --- | --- | --- | --- | --- | --- |
| CCS(=O)(=O)c1cc(-c2cccc(C3CC3)n2)cnc1-c1nc2cc(C(F)(F)C(F)(F)F)nnc2n1C [Compound 3, 6-cyclopropyl-5′-(ethanesulfonyl)-6′-[7-methyl-3-(1,1,2,2,2-pentafluoroethyl)imidazo[4,5-c]pyridazin-6-yl]-2,3′-bipyridine] | < 0.04 | 100 | 100 | 100 | 100 | – | – | – | – | – | – | – | – | – | – |
| CCS(=O)(=O)c1cc(-c2ccc(C3CC3)cc2)cnc1-c1nc2cc(C(F)(F)F)cnc2n1C [Compound 41, 5-(4-cyclopropylphenyl)-3-(ethanesulfonyl)-2-[3-methyl-6-(trifluoromethyl)imidazo[4,5-b]pyridin-2-yl]pyridine] | – | 100 | 100 | 100 | – | < 0.04 | 1 to 10 | 100 | – | – | – | – | – | – | – |
| CCS(=O)(=O)c1cc(-c2ccc(C3CC3)cc2)cnc1-c1nc2cc(S(=O)(=O)C(F)(F)F)ccc2n1C [Compound 42, 2-[5-(4-cyclopropylphenyl)-3-(ethanesulfonyl)pyridin-2-yl]-1-methyl-5-trifluoromethanesulfonyl-1,3-benzodiazole] | – | 100 | 100 | – | – | < 0.04 | 1 to 10 | – | 1 to 10 | – | – | – | – | – | – |
| CCS(=O)(=O)c1cc(-c2ccc(C3CC3)cc2)cnc1-c1nc2cc([S+]([O-])C(F)(F)F)ccc2n1C (stereo not drawn) [Compound 43, 2-[5-(4-cyclopropylphenyl)-3-(ethanesulfonyl)pyridin-2-yl]-1-methyl-5-trifluoromethanesulfinyl-1,3-benzodiazole] | – | 100 | 100 | – | – | < 0.04 | 1 to 10 | 100 | 1 to 10 | – | – | – | – | – | – |
| CCS(=O)(=O)c1cc(-c2ccc(C3CC3)cc2)cnc1-c1nc2cc(C(F)(F)F)n(C3CC3)c(=O)c2n1C [Compound 45, 5-cyclopropyl-2-[5-(4-cyclopropylphenyl)-3-(ethanesulfonyl)pyridin-2-yl]-3-methyl-6-(trifluoromethyl)imidazo[4,5-c]pyridin-4-one] | – | 100 | 100 | 100 | – | < 0.04 | – | 100 | 1 to 10 | < 10 | < 10 | 1 to 10 | – | – | – |
| CCS(=O)(=O)c1cc(-c2ccc(C3CC3)cc2)cnc1-c1cc2n(CC3CC3)cc(C(F)(F)F)cc-2n1 [Compound 96, 2-[4-(cyclopropylmethyl)-6-(trifluoromethyl)pyrrolo[3,2-b]pyridin-2-yl]-5-(4-cyclopropylphenyl)-3-(ethanesulfonyl)pyridine] | – | 100 | 100 | 100 | – | – | – | 100 | – | < 10 | 10 to 100 | 1 to 10 | – | – | – |
| CCS(=O)(=O)c1cc(-c2ccc(C3(C#N)CC3)cc2)cnc1-c1nc2cc(C(F)(F)C(F)(F)F)ncc2n1C [Compound 115, 1-[4-[5-(ethanesulfonyl)-6-[3-methyl-6-(1,1,2,2,2-pentafluoroethyl)imidazo[4,5-c]pyridin-2-yl]pyridin-3-yl]phenyl]cyclopropane-1-carbonitrile] | – | 100 | 100 | 100 | – | < 0.04 | < 1 | 100 | < 1 | 10 to 100 | 10 to 100 | < 1 | – | – | – |
| CCS(=O)(=O)c1cc(-c2cc(C3CC3)ccn2)cnc1-c1nc2cc(C(F)(F)C(F)(F)F)cnc2n1C [Compound 182, 4-cyclopropyl-5′-(ethanesulfonyl)-6′-[3-methyl-6-(1,1,2,2,2-pentafluoroethyl)-3H-imidazo[4,5-b]pyridin-2-yl]-2,3′-bipyridine] | – | 100 | 100 | 100 | 100 | – | – | – | – | – | – | – | 10 to 100 | < 1 | – |
| CCS(=O)(=O)c1cc(-c2ccc(C3CC3)cc2)cnc1-c1nc2cc(C(C)(F)F)cnc2n1C [Compound 194, 5-(4-cyclopropylphenyl)-2-[6-(1,1-difluoroethyl)-3-methylimidazo[4,5-b]pyridin-2-yl]-3-(ethanesulfonyl)pyridine] | – | 100 | 100 | 100 | – | – | – | 100 | – | 10 to 100 | – | – | – | – | – |
| CCS(=O)(=O)c1cc(-c2ccc(C3(C#N)CC3)cc2)cnc1-c1nc2cc(C(F)(F)F)cn(CC(F)F)c-2c1F [compound 67] | – | – | – | – | – | – | – | – | – | – | – | – | – | – | >95 |
| CCS(=O)(=O)c1cc(-c2cccc(C3CC3)n2)cnc1-c1nc2cc(C(F)(F)C(F)(F)F)cnc2n1C [compound 112] | – | 100 | 100 | – | – | < 0.04 | < 1 | 100 | 1 to 10 | 10 to 100 | 10 to 100 | 1 to 10 | – | – | – |
| CCS(=O)(=O)c1cc(-c2ccc(C3(C#N)CC3)cc2)cnc1-c1ccc(OCC(F)(F)C(F)(F)F)cn1 [compound 128] | – | 100 | 100 | 100 | – | – | 1 to 10 | 100 | – | < 10 | – | – | – | – | – |
